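Where inhibition never reached the appropriate level, the endpoint shown equals the highest concentration tested. Otherwise, values were interpolated linearly from a five-concentration, 48-hour dose response in 96-well plates. Abbreviation: GI50, concentration required for 50% inhibition of growth. TGI marks complete inhibition of growth.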 Where a SMILES comes first, the peptide text is derived from it. [ ]: non-standard residue; d: D form. The star is where a group is joined. Bn2Val = CC(C)[C@@H](C(=O)*)N(Cc1ccccc1)Cc1ccccc1; NMeV = CN[C@H](C(=O)O)C(C)C; X29 = COc1ccc(CN*)c(OC)c1; dNMeA = CN[C@H](C)C(=O)O
Columns and labels:
Assay in all cases: NCI anticancer screen, dose series, 48 h
786-0 renal = tested on: 786-0 renal
ACHN renal = tested on: ACHN renal
EKVX NSCLC = tested on: EKVX NSCLC
HCT-15 colon = tested on: HCT-15 colon
HS 578T breast = tested on: HS 578T breast
IGROV1 ovarian = tested on: IGROV1 ovarian
PC-3 prostate = tested on: PC-3 prostate
RPMI-8226 leukemia = tested on: RPMI-8226 leukemia
SK-MEL-5 melanoma = tested on: SK-MEL-5 melanoma
U251 CNS = tested on: U251 CNS

| Structure (SMILES) | TGI (786-0 renal) | TGI (ACHN renal) | TGI (EKVX NSCLC) | TGI (HCT-15 colon) | TGI (HS 578T breast) | TGI (IGROV1 ovarian) | TGI (PC-3 prostate) | TGI (RPMI-8226 leukemia) | TGI (SK-MEL-5 melanoma) | TGI (U251 CNS) | GI50 (EKVX NSCLC) | GI50 (HCT-15 colon) | GI50 (HS 578T breast) | GI50 (IGROV1 ovarian) | GI50 (PC-3 prostate) | GI50 (RPMI-8226 leukemia) | GI50 (SK-MEL-5 melanoma) | GI50 (U251 CNS) |
| --- | --- | --- | --- | --- | --- | --- | --- | --- | --- | --- | --- | --- | --- | --- | --- | --- | --- | --- |
| COc1ccc(C(Cc2ccccc2)C2NC(=S)NC2=O)cc1 (configuration not stated) | > 25 µM | > 25 µM | > 25 µM | > 25 µM | > 25 µM | > 25 µM | > 25 µM | > 25 µM | > 25 µM | > 25 µM |  |  |  |  |  |  |  |  |
| O=C1CC(C(CC(=O)c2ccccc2)c2ccccc2)C(=O)c2ccccc2N1 (configuration not stated) | > 100 µM | > 100 µM | > 100 µM | 94.9 µM | > 100 µM | > 100 µM | > 100 µM | > 100 µM | > 100 µM | > 100 µM |  |  |  |  |  |  |  |  |
| Cc1ccnc2nc(N)ccc12 | > 100 µM | > 100 µM | > 100 µM | > 100 µM | > 100 µM | > 100 µM | > 100 µM | > 100 µM | > 100 µM | > 100 µM |  |  |  |  |  |  |  |  |
| CC(C)(O)C1CC[C@]2(C)[C@H]3CC[C@@H]4[C@@]5(C)CCCC(C)(C)[C@@H]5CC[C@@]4(C)[C@]3(C)CC[C@@H]12 (some centres not stated) | > 100 µM | > 100 µM | > 100 µM | > 100 µM | > 100 µM | > 100 µM | > 100 µM | > 100 µM | > 100 µM | > 100 µM |  |  |  |  |  |  |  |  |
| OCC(CCc1ccccc1I)C1=CCC2(CC1)OCCO2 (configuration not stated) | 42.5 µM | > 100 µM | 58.4 µM | 54.7 µM | 45.4 µM | 39.7 µM | 52.5 µM | > 100 µM | 27.8 µM | 41.8 µM |  |  |  |  |  |  |  |  |
| Oc1ccccc1C1C=C(c2ccccc2)NC(N2CCCCC2)=C1c1nc2ccccc2[nH]1 (configuration not stated) | 25.7 µM | 47.7 µM | 18.8 µM | 35.9 µM | 31 µM | 27.8 µM | 24.5 µM | 49 µM | 27 µM | 28.4 µM |  |  |  |  |  |  |  |  |
| CC12CCCCC1=[N+]([O-])C(C)(C)N2O (configuration not stated) | > 100 µM | > 100 µM | > 100 µM | > 100 µM | > 100 µM | > 100 µM | > 100 µM | > 100 µM | > 100 µM | > 100 µM |  |  |  |  |  |  |  |  |
| COc1ccccc1N=Nc1c(O)c(S(=O)(=O)O)cc2cc(S(=O)(=O)O)ccc12 | > 100 µM | > 100 µM | > 100 µM | > 100 µM | > 100 µM | > 100 µM | > 100 µM | > 100 µM | > 100 µM | > 100 µM |  |  |  |  |  |  |  |  |
| NC(Cc1c[nH]c2cc([N+](=O)[O-])ccc12)C(=O)O (configuration not stated) | > 100 µM | > 100 µM | > 100 µM | > 100 µM | > 100 µM | > 100 µM | > 100 µM | > 100 µM | > 100 µM | > 100 µM |  |  |  |  |  |  |  |  |
| Cc1cccc2nc3c(=O)[nH]c(=O)nc-3n(C)c12 | > 100 µM | > 100 µM | > 100 µM | > 100 µM | > 100 µM | > 100 µM | > 100 µM | 95.4 µM | > 100 µM | > 100 µM |  |  |  |  |  |  |  |  |
| O=C1C=C2CCC[C@H]3OC(=O)C[C@@]23CC1 | > 100 µM | > 100 µM | > 100 µM | > 100 µM | > 100 µM | > 100 µM | > 100 µM | > 100 µM | > 100 µM | > 100 µM |  |  |  |  |  |  |  |  |
| CC(=O)OC1C2CCC3C(C)(O)C4CC(O)C(C)(C)C4(O)C(O)CC13CC2(C)O (configuration not stated) | > 100 µM | > 100 µM | > 100 µM | > 100 µM | > 100 µM | > 100 µM | > 100 µM | > 100 µM | > 100 µM |  |  |  |  |  |  |  |  |  |
| COC(=O)c1c(CC(Cc2ccc3c(c2)CCCC3)C(=O)OC)ccc2c1CCCC2 (configuration not stated) | > 100 µM | > 100 µM | 77.1 µM | > 100 µM | > 100 µM | > 100 µM | > 100 µM | > 100 µM | > 100 µM | > 100 µM |  |  |  |  |  |  |  |  |
| COc1ccc(CNC(=O)[C@@H]2CCCN2C(=O)[C@@H](C)N(C)C(=O)[C@H](C(C)C)N(C)C(=O)[C@@H](NC(=O)[C@H](C(C)C)N(Cc2ccccc2)Cc2ccccc2)C(C)C)c(OC)c1 (Bn2Val-V[NMeV][dNMeA]P-X29) | 11.1 µM | 13.9 µM | 12 µM | 13.5 µM | > 100 µM | 12.6 µM | 10.1 µM | 17.2 µM |  | 5.21 µM |  |  |  |  |  |  |  |  |
| CC(C)(C)CC(C)(C)NC(=S)NO | > 100 µM | > 100 µM | > 100 µM | > 100 µM | > 100 µM | > 100 µM | > 100 µM | > 100 µM | > 100 µM |  |  |  |  |  |  |  |  |  |
| N#C/C(=C\c1ccc([N+](=O)[O-])s1)c1nc2cc(Cl)ccc2s1 |  |  | 5.82 µM | 0.622 µM | 8.45 µM | 4.52 µM | 3.42 µM | 3.26 µM | 0.955 µM | 3.02 µM | 1.63 µM | 0.246 µM | 2.45 µM | 0.94 µM | 1.31 µM | 0.675 µM | 0.314 µM | 0.599 µM |
| O=c1[nH]c(=O)n(COCCO)c2ccsc12 | > 100 µM | > 100 µM | > 100 µM | > 100 µM | > 100 µM | > 100 µM | > 100 µM | > 100 µM | > 100 µM | > 100 µM |  |  |  |  |  |  |  |  |
| Cn1c([C@H](C#N)C(=O)c2cc(O)ccc2[N+](=O)[O-])nc2ccccc21 | > 100 µM | > 100 µM | > 100 µM | > 100 µM | > 100 µM | > 100 µM | > 100 µM | > 100 µM | > 100 µM | > 100 µM |  |  |  |  |  |  |  |  |
| Cc1ccc(S(=O)(=O)NC(=O)NC(CCCCN=C(N)N)C(=O)O)cc1 (configuration not stated) | > 100 µM | > 100 µM |  | > 100 µM | > 100 µM | > 100 µM | > 100 µM | > 100 µM | > 100 µM | > 100 µM |  |  |  |  |  |  |  |  |
| Cc1nc2n(c1/C=C1/C(=O)Nc3ccccc31)CCS2 | > 100 µM | > 100 µM | > 100 µM | > 100 µM | > 100 µM | > 100 µM | > 100 µM | > 100 µM | > 100 µM | > 100 µM |  |  |  |  |  |  |  |  |

Source: PubChem BioAssay (NCI)
